Broadly, the inhibition is the drop in the measured response relative to a control, in per cent. Usually Ki stands for a measure of affinity in units of concentration, obtained from inhibition or displacement. What is called IC50 is the point on the concentration scale where inhibition reaches its midpoint.

The source of these data is ChEMBL document CHEMBL4431326, “Tumor Targeting with Novel 6-Substituted Pyrrolo [2,3-d] Pyrimidine Antifolates with Heteroatom Bridge Substitutions via Cellular Uptake by Folate Receptor α and the Proton-Coupled Folate Transporter and Inhibition of de Novo Purine Nucleotide Biosynthesis” (J Med Chem, 2016).

The target in experiment [1] is T1, Proton-coupled folate transporter (Homo sapiens) (UniProt Q96NT5).
T1 sequence (whole entry): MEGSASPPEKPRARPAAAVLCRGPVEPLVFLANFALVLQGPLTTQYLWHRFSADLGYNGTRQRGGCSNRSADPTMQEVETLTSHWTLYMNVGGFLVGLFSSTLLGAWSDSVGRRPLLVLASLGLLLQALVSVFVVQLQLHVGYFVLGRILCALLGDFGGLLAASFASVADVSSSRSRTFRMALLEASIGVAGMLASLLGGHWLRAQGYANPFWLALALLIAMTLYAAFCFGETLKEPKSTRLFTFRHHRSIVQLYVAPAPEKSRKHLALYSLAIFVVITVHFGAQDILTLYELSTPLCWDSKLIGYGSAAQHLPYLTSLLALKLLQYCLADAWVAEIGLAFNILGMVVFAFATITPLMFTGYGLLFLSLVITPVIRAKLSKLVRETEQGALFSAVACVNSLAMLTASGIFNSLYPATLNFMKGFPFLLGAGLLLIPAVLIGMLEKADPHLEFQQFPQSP
Kind of experiment: Inhibition of [3H]MTX uptake at human PCFT expressed in Chinese hamster R2/PCFT4 cells at 10 uM and pH 5.5 measured after 5 mins. In kind it is cell-based.

Experiment [2] has as its target T1, Proton-coupled folate transporter (Homo sapiens). Kind of experiment: Inhibition of [3H]MTX uptake at human PCFT expressed in Chinese hamster R2/PCFT4 cells at 10 uM and pH 6.8 measured after 5 mins. In kind it is cell-based.
Experiment [3] shares this target. Nature of the experiment: Inhibition of [3H]MTX uptake at human PCFT expressed in Chinese hamster R2/PCFT4 cells at 1 uM and pH 5.5 measured after 5 mins. The experiment is classed as cell-based.
Experiment [4] has as its target T2, Proton-coupled folate transporter (Homo sapiens, UniProt Q96NT5).
T2 sequence (Q96NT5 whole entry): T1 sequence (whole entry)
Kind of experiment: Inhibition of [3H]MTX uptake at human PCFT expressed in Chinese hamster R2/PCFT4 cells at pH 5.5 measured after 5 mins by Dixon plot analysis. In kind it is cell-based.

The test system of experiment [5] is IGROV-1. Nature of the experiment: Antiproliferative activity against human IGROV1 cells expressing human FR-alpha/PCFT assessed as reduction in cell viability measured after 96 hrs in presence of folic acid by Cell-Titer Blue fluorescence analysis. The experiment is classed as functional, cell-based. As to conditions: IGROV-1, 96 h.
A short description of experiment [6]: Cytotoxicity in RFC-null Chinese hamster R2 cells assessed as reduction in cell viability measured after 96 hrs by Cell-Titer Blue fluorescence analysis. In kind it is cell-based. Particulars: Cricetulus griseus, R2, 96 h.
Experiment [7] in a line: Cytotoxicity in PCFT-null Chinese hamster R2 cells assessed as reduction in cell viability measured after 96 hrs by Cell-Titer Blue fluorescence analysis. The experiment is classed as cell-based. Particulars: Cricetulus griseus, R2, 96 h.
Experiment [8] concerns KB. Kind of experiment: Antiproliferative activity against human KB cells expressing human RFC/FR-alpha/PCFT assessed as reduction in cell viability measured after 96 hrs by Cell-Titer Blue fluorescence analysis. In kind it is functional, cell-based.
In experiment [9] the test system is KB. Kind of experiment: Antiproliferative activity against human KB cells expressing human RFC/FR-alpha/PCFT assessed as reduction in cell viability measured after 96 hrs in presence of folic acid by Cell-Titer Blue fluorescence analysis. In kind it is functional, cell-based.
Experiment [10] addresses T3, GAR transformylase/AICAR transformylase (Homo sapiens) (UniProt P31939+P22102). Nature of the experiment: Inhibition of GARFTase/AICARFTase in human KB cells expressing RFC/FR-alpha/PCFT assessed as cell growth inhibition measured after 96 hrs in presence of 60 uM adenosine by Cell-Titer Blue fluorescence analysis. The experiment is classed as cell-based.
In experiment [11] the target is T3, GAR transformylase/AICAR transformylase (Homo sapiens). Nature of the experiment: Inhibition of GARFTase/AICARFTase in human KB cells expressing RFC/FR-alpha/PCFT assessed as cell growth inhibition measured after 96 hrs in presence of 10 uM thymidine by Cell-Titer Blue fluorescence analysis. The experiment is classed as cell-based.
The target in experiment [12] is Bifunctional purine biosynthesis protein ATIC (Homo sapiens) (UniProt P31939). Kind of experiment: Inhibition of AICARFTase in human KB cells expressing RFC/FR-alpha/PCFT assessed as cell growth inhibition measured after 96 hrs in presence of 320 uM AICA by Cell-Titer Blue fluorescence analysis. In kind it is cell-based.
Experiment [13] deals with Folate receptor alpha (Homo sapiens) (UniProt P15328). Nature of the experiment: Displacement of [3H]folic acid from human FR-alpha receptor expressed in Chinese hamster RT16 cells measured after 15 mins relative to folic acid. The experiment is classed as cell-based. Further details: concentration or dose not given beside the values.
In experiment [14] the target is T4, Trifunctional purine biosynthetic protein adenosine-3 (Homo sapiens, UniProt P22102).
T4 sequence (P22102 whole entry): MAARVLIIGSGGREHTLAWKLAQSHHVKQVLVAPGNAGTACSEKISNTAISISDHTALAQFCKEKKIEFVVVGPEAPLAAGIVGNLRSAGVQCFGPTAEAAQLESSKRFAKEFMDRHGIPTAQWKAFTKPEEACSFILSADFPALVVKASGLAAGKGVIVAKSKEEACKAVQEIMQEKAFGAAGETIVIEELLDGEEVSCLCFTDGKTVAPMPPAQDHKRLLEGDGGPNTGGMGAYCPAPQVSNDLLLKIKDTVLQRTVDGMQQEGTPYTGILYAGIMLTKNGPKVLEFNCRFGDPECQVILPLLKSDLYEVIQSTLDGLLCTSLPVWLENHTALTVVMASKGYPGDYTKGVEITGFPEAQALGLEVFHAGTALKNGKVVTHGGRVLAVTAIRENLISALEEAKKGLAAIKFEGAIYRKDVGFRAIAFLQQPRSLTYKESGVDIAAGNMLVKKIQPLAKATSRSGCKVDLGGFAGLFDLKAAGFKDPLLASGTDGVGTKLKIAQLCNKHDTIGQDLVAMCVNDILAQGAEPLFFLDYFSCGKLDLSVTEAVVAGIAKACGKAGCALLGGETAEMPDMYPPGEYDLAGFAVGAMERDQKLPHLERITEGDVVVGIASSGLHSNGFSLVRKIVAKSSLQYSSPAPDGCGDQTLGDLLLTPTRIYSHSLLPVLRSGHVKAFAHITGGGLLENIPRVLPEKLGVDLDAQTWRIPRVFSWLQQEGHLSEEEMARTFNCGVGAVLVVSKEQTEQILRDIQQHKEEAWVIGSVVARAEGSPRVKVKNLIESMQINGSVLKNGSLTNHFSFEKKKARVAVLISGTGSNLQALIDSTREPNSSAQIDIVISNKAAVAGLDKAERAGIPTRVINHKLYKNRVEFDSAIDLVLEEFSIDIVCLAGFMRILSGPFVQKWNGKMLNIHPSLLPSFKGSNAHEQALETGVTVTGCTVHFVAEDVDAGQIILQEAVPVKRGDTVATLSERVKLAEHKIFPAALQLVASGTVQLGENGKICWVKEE
Nature of the experiment: Inhibition of GARFTase in human KB cells expressing RFC/FR-alpha/PCFT assessed as decrease in incorporation of [14C(U)]-glycine into [14C]formyl GAR incubated for 1 hr followed by addition of [14C(U)]-glycine measured after 16 hrs in presence of azaserine. In kind it is cell-based.

Experiment [15] concerns the target T4, Trifunctional purine biosynthetic protein adenosine-3. Nature of the experiment: Inhibition of recombinant N-terminal 6His-tagged human GARFTase assessed as formation of 5,8-dideazafolate from 10-formyl-5,8-dideazafolic acid measured at every 15 seconds over 20 min by spectrophotometric analysis.
The target in experiment [16] is Folate receptor beta (Homo sapiens) (UniProt P14207). Kind of experiment: Displacement of [3H]folic acid from human FR-beta receptor expressed in Chinese hamster D4 cells measured after 15 mins relative to folic acid. In kind it is cell-based. A general note: In a radioligand displacement assay an active substance lowers the binding of a labelled ligand.

Activity calls are given as the source filed them. The calls are words filed in the database; no cut-off is given here. Some results are limits rather than exact numbers.

Sequence of Bifunctional purine biosynthesis protein ATIC (Homo sapiens) (P31939 whole entry, looked up): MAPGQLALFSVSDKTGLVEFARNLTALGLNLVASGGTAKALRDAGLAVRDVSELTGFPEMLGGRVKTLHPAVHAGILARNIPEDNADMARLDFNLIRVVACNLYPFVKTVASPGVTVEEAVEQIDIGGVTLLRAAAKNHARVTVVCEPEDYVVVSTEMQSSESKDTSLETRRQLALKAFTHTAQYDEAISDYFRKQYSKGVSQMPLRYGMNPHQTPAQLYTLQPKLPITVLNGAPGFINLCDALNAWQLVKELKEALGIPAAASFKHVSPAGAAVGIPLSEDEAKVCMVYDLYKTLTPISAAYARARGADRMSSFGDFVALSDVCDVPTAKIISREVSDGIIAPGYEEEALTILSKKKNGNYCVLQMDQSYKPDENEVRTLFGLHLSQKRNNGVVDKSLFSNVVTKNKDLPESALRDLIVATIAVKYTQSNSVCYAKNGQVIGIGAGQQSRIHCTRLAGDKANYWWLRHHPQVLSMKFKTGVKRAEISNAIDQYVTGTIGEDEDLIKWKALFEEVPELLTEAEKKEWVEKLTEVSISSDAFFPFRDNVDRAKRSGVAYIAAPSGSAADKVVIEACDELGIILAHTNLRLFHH
T3 sequence (P31939 whole entry, looked up, one chain of several): as the sequence (P31939 whole entry, looked up) above
Sequence of Folate receptor alpha (Homo sapiens) (P15328 25-234 limits assumed): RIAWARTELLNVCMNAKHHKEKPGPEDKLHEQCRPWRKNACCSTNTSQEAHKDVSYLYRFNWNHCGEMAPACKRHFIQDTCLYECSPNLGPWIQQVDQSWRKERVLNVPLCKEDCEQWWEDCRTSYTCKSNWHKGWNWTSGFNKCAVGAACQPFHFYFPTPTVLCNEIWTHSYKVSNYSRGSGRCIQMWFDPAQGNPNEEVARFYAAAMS
Sequence of Folate receptor beta (Homo sapiens) (P14207 17-230 limits assumed): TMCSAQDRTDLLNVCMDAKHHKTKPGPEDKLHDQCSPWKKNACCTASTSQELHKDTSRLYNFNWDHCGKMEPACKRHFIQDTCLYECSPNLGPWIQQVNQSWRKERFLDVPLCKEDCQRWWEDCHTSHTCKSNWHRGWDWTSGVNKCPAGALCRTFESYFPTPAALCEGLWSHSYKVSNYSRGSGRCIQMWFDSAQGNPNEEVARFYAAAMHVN

Turning to `Nc1nc2[nH]c(CCCc3ccc(C(=O)N[C@@H](CCC(=O)O)C(=O)O)cc3)cc2c(=O)[nH]1`, the inhibition result in experiment [1] and in [3] was “Active” throughout. For the same compound, in [2], the inhibition fell in the range of 40 to 60%. In [4], this compound displayed a Ki of 220 nM. In addition, in experiment [5], the IC50 was more than 1000 nM.
Take `Nc1nc2[nH]c(CCN(C=O)c3ccc(C(=O)N[C@@H](CCC(=O)O)C(=O)O)cc3)cc2c(=O)[nH]1`: the IC50 in experiment [6] is more than 1000 nM; in experiment [7], more than 1000 nM; in [8], 2.09 nM; in [9] it was more than 1000 nM; in experiment [14] it was 2.11 nM. The inhibition result in [10] was “inactive”. For the same compound, the inhibition result in [11], in experiment [12] and in [2] was “Active” throughout. Further, the inhibition in experiment [13] is less than 15%; in [1], 80 to 90%; in experiment [3], 30 to 60%. Besides, the Ki in experiment [4] stood at 730 nM; in experiment [15], 99 nM.
Turning to `Nc1nc2[nH]c(CCN(C(=O)C(F)(F)F)c3ccc(C(=O)N[C@@H](CCC(=O)O)C(=O)O)cc3)cc2c(=O)[nH]1`, the IC50 in experiment [6] is more than 1000 nM; in experiment [7] it was more than 1000 nM; in experiment [8], 0.56 nM; in experiment [9] it was 924 nM; in [14] it was 4.95 nM. Also, the inhibition result in experiment [10] is “inactive”. The inhibition entry in [11] and in experiment [12] was “Active” in each case. Also, the inhibition is less than 15% in experiment [13], 80 to 90% in experiment [1], 40 to 60% in [2] and 30 to 60% in experiment [3]. Besides, the inhibition constant (Ki) in [4] was 800 nM; in [15] it was 122 nM.
Consider `Nc1nc2[nH]c(CCOc3ccc(C(=O)N[C@@H](CCC(=O)O)C(=O)O)cc3)cc2c(=O)[nH]1`, for which the IC50 in experiment [6] is 940 nM; in experiment [7] it was more than 1000 nM; in experiment [8] it was 0.34 nM; in experiment [9] it was 704 nM; in experiment [14], 6.62 nM. Also, the inhibition entry in experiment [10] is “inactive”. The inhibition result in [11] and in experiment [12] was “Active” throughout. The inhibition was in the range of 60 to 110% in experiment [13]; 60 to 110% in [16]; 80 to 90% in experiment [1]; 40 to 60% in [2]; 30 to 60% in experiment [3]. The Ki in [4] came out at 640 nM; in experiment [15], 61 nM.
For `CC(=O)N(CCc1cc2c(=O)[nH]c(N)nc2[nH]1)c1ccc(C(=O)N[C@@H](CCC(=O)O)C(=O)O)cc1`, the IC50 in [6] was more than 1000 nM; in [7] it was more than 1000 nM; in experiment [8] it was 2.57 nM; in [9], more than 1000 nM; in experiment [14] it was 5.58 nM. For the same compound, the inhibition entry in [10] is “inactive”. In addition, the inhibition result in experiment [11], in [12] and in experiment [2] was “Active” throughout. For the same compound, the values for the inhibition in experiment [13], in experiment [1] and in experiment [3] were less than 15%, 80 to 90% and 30 to 60%, respectively. The Ki in [4] was found to be 1680 nM; in experiment [15], 62 nM.
Consider `Nc1nc2[nH]c(CCSc3ccc(C(=O)N[C@@H](CCC(=O)O)C(=O)O)cc3)cc2c(=O)[nH]1`, for which the IC50 in experiment [6] is more than 1000 nM; in experiment [7], more than 1000 nM; in experiment [8], 1.66 nM; in experiment [9] it was more than 1000 nM; in experiment [14], 5.25 nM. Moreover, the inhibition result in experiment [10] was “inactive”. Moreover, the inhibition entry in [11], in experiment [12] and in experiment [2] was “Active” each time. In addition, the inhibition in [13] is 60 to 110%; in experiment [16], 60 to 110%; in [1], 80 to 90%; in experiment [3], 30 to 60%. In addition, the Ki in experiment [4] worked out at 1480 nM; in experiment [15], 201 nM.
